From ChEMBL document CHEMBL3046759, “Seed and leaf treatments with natural compounds to induce resistance against Peronospora parasitica in Brassica oleracea” (2012)
Calls of active or inactive are those of the source. The calls are words filed in the database; no cut-off is given here.

What was measured:
Brassica oleracea [1] = experiment: Induction of systemic acquired resistance in Brassica oleracea (white cabbage) plants assessed as increase in glucanase activity at 10 mM sprayed on seeds by colorimetric assay; type: functional, organism-based
Brassica oleracea [2] = experiment: Induction of systemic acquired resistance in Brassica oleracea (white cabbage) plants assessed as increase in chitinase activity at 10 mM sprayed on seeds by colorimetric assay; type: functional, organism-based
Brassica oleracea [3] = experiment: Induction of systemic acquired resistance in Brassica oleracea (white cabbage) plants assessed as increase in glucanase activity at 10 mM sprayed on leaves of 3 weeks old seedlings by colorimetric assay; type: functional, organism-based
Brassica oleracea [4] = experiment: Induction of systemic acquired resistance in Brassica oleracea (white cabbage) plants assessed as increase in chitinase activity at 10 mM sprayed on leaves of 3 weeks old seedlings by colorimetric assay; type: functional, organism-based
[5] = tested on: Hyaloperonospora parasitica; experiment: Induction of systemic acquired resistance against Hyaloperonospora parasitica-induced downy mildew disease in white cabbage assessed as infected leaf area at 1 mM sprayed on leaves of one week old seedlings relative to untreated control; type: functional, organism-based
Brassica oleracea [6] = experiment: Induction of systemic acquired resistance in Brassica oleracea (white cabbage) plants assessed as increase in glucanase activity at 1 mM sprayed on seeds by colorimetric assay; type: functional, organism-based
Brassica oleracea [7] = experiment: Induction of systemic acquired resistance in Brassica oleracea (white cabbage) plants assessed as increase in glucanase activity at 1 mM sprayed on leaves of 3 weeks old seedlings by colorimetric assay; type: functional, organism-based
Brassica oleracea [8] = experiment: Induction of systemic acquired resistance in Brassica oleracea (white cabbage) plants assessed as increase in chitinase activity at 1 mM sprayed on seeds by colorimetric assay; type: functional, organism-based
Brassica oleracea [9] = experiment: Induction of systemic acquired resistance in Brassica oleracea (white cabbage) plants assessed as increase in chitinase activity at 1 mM sprayed on leaves of 3 weeks old seedlings by colorimetric assay; type: functional, organism-based
[10] = tested on: Hyaloperonospora parasitica; experiment: Induction of systemic acquired resistance against Hyaloperonospora parasitica-induced downy mildew disease in white cabbage assessed as disease index at 1 mM sprayed on leaves exposed to compound for 2 to 48 hr measured 10 days after planting; type: functional, organism-based; conditions: TDE = time-dependent effect
Brassica oleracea [11] = experiment: Induction of systemic acquired resistance in Brassica oleracea (white cabbage) plants assessed as increase in chitinase activity at 1 mM sprayed on leaves exposed to compound for 2 to 48 hr measured 10 days after planting by colorimetric assay; type: functional, organism-based; conditions: TDE = time-dependent effect
Brassica oleracea [12] = experiment: Induction of systemic acquired resistance in Brassica oleracea (white cabbage) plants assessed as increase in glucanase activity at 1 mM sprayed on leaves exposed to compound for 2 to 48 hr measured 10 days after planting by colorimetric assay; type: functional, organism-based; conditions: TDE = time-dependent effect
[13] = tested on: Hyaloperonospora parasitica; experiment: Induction of systemic acquired resistance against Hyaloperonospora parasitica-induced downy mildew disease in white cabbage assessed as infected leaf area sprayed on leaves of one week old seedlings relative to untreated control; type: functional

MANGANESE CHLORIDE ANHYDROUS
Activity (Brassica oleracea [1]): inactive | Activity (Brassica oleracea [2]): inactive | Activity (Brassica oleracea [3]): Active | Activity (Brassica oleracea [4]): Active

CUPRIC SULFATE
Activity [5]: 0.01%

O=C(O)c1cc(Cl)nc(Cl)c1
Activity (Brassica oleracea [6]): Active | Activity (Brassica oleracea [7]): Active | Activity (Brassica oleracea [8]): Active | Activity (Brassica oleracea [9]): Active | Activity [10]: tde | Activity (Brassica oleracea [11]): tde | Activity (Brassica oleracea [12]): tde

CCCOC(=O)NCCCN(C)C.Cl [PROPAMOCARB HYDROCHLORIDE]
Activity [13]: 56.4%
